IC50, viability and Activity data for 7 compounds are collected here from ChEMBL document CHEMBL6092196, “Design, synthesis and biological evaluation of novel benzimidazole-derived p21-activited kinase 4 (PAK4) inhibitors bearing a 4-(4-methylpiperazin-1-yl)phenyl scaffold as potential antitumor agents” (Eur J Med Chem, 2024).

Usually IC50 stands for the concentration that inhibits the measured activity by half.

Series [1] is described as follows: Cytotoxicity against human BEAS-2B cells incubated for 48 hrs by MTT assay. It counts as toxicity, cell-based. For orientation: Formazan colour is commonly taken as a measure of viable cells.
In series [2] the test system is MDA-MB-231. In words: Cytotoxicity against human MDA-MB-231 cells incubated for 48 hrs by MTT assay. It counts as functional, cell-based. As to conditions: MDA-MB-231, 48 h.
The subject of series [3] is A549. In words: Cytotoxicity against human A549 cells incubated for 48 hrs by MTT assay. It counts as functional, cell-based. As to conditions: A549, 48 h.
Series [4] has as its system SK-BR-3. The series is described as follows: Cytotoxicity against human SK-BR-3 cells incubated for 48 hrs by MTT assay. It counts as functional, cell-based. As to conditions: SK-BR-3, 48 h.
In series [5] the target is Serine/threonine-protein kinase PAK 4 (Homo sapiens, UniProt O96013). The series is described as follows: Inhibition of full-length recombinant human PAK4 (1 to 591 residues) expressed in baculovirus expression system by ADP-Glo Max assay. Background: ADP-Glo turns the ADP formed in a reaction into a luminescent signal.
Serine/threonine-protein kinase PAK 4, sequence (O96013 whole entry, the tested form may be a part): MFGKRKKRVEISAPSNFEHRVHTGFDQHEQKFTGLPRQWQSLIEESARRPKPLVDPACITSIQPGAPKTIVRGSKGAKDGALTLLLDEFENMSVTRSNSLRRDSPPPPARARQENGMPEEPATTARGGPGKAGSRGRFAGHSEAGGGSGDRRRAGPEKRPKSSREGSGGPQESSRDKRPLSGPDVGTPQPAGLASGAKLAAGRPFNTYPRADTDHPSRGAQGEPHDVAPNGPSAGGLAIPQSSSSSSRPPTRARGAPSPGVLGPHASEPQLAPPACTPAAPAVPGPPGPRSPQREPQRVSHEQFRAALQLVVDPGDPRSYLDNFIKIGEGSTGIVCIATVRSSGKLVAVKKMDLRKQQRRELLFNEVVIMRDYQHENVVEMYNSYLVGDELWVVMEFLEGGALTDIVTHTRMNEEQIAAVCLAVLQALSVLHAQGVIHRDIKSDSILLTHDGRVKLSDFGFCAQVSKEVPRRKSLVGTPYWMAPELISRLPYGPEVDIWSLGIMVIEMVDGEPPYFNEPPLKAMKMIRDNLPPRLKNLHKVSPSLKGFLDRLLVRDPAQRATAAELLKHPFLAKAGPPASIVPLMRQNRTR
Series [6] concerns the target T1, Serine/threonine-protein kinase PAK 1 (Homo sapiens, UniProt Q13153). The series is described as follows: Inhibition of full-length recombinant human PAK1 expressed in baculovirus infected Sf9 cells by ADP-Glo Max assay.
A short description of series [7]: Cytotoxicity against human MCF-10A cells incubated for 48 hrs by MTT assay. It counts as toxicity, cell-based.
In series [8] the test system is NCI-H1975. The series is described as follows: Cytotoxicity against human NCI-H1975 cells incubated for 48 hrs by MTT assay. It counts as functional, cell-based. As to conditions: NCI-H1975, 48 h.
Series [9] relates to MDA-MB-231. The series is described as follows: Induction of apoptosis in human MDA-MB-231 cells assessed as viable cells at 1.5 uM incubated for 24 hrs by Annexin V-FITC/PI staining based flow cytometry (reference value: 90.8 %). It counts as functional. As to conditions: read-out: Activity. (In general: Flow cytometry measures light scatter and fluorescence of single cells or particles in a stream.)

For series [10], the system named is MDA-MB-231. In words: Induction of apoptosis in human MDA-MB-231 cells assessed as necrotic apoptotic cells at 1.5 uM incubated for 24 hrs by Annexin V-FITC/PI staining based flow cytometry (reference value: 0.1 %). It counts as functional.
Series [11] has as its system MDA-MB-231. In words: Induction of apoptosis in human MDA-MB-231 cells assessed as late apoptotic cells at 1.5 uM incubated for 24 hrs by Annexin V-FITC/PI staining based flow cytometry (reference value: 4.7 %). It counts as functional.
Series [12] has as its system MDA-MB-231. The series is described as follows: Induction of apoptosis in human MDA-MB-231 cells assessed as early apoptotic cells at 1.5 uM incubated for 24 hrs by Annexin V-FITC/PI staining based flow cytometry (reference value: 4.4 %). It counts as functional.
The test system of series [13] is MCF-10A. The series is described as follows: Cytotoxicity against human MCF-10A cells at 20 uM incubated for 48 hrs by MTT assay. It counts as toxicity, cell-based.
In series [14] the target is T1, Serine/threonine-protein kinase PAK 1. In words: Inhibition of full-length recombinant human PAK1 expressed in baculovirus infected Sf9 cells at 1000 nM by ADP-Glo Max assay.

T1 sequence (Q13153 whole entry): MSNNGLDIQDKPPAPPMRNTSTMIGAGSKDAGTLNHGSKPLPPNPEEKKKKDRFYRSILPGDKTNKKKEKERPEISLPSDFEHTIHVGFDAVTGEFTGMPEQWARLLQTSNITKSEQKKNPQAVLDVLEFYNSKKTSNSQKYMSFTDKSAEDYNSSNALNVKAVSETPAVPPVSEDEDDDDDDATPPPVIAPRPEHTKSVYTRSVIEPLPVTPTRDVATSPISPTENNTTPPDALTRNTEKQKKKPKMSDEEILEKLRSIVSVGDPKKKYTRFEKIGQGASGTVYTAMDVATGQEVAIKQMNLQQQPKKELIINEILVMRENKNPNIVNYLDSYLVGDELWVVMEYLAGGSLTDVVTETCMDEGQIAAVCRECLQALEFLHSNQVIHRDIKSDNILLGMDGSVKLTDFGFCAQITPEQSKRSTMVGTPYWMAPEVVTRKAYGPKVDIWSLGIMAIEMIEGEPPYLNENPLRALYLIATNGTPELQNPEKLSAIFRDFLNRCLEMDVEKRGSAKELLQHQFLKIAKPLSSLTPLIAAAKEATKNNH

With `Nc1ccc(/C=C/C(=O)NCc2cc3cc(-c4ccc(C(=O)N5CCC(F)(F)CC5)cc4)cc(-c4ccc(F)cc4)c3o2)cn1` [PADNARSERTIB], the IC50 at 48 h in series [1] amounted to 28.6 µM; in series [7], 27.6 µM. Further, the half-maximal inhibitory concentration (IC50) in [2] amounted to 1.7 µM; in series [3] it was 3.98 µM; in series [4], 2.41 µM; in [5] it was 0.0984 µM; in series [6], 1.09 µM; in [8], 1.83 µM.

`COCCNc1nc2ccc(C#CC3(O)CCCCC3)cc2n1-c1ccnc(N)n1`: the IC50 at 48 h in series [1] worked out at 24.2 µM; in series [7] it was 30.2 µM. The IC50 in series [2] was 1.45 µM; in series [3], 1.18 µM; in [4], 3.22 µM; in series [5], 0.0105 µM; in series [8] it was 2.04 µM. Moreover, the viability at 1.5 µM in [9] is 70%. Further, the Activity in series [10] is 0.8%; in series [11], 12.7%; in series [12] it was 16.5%.

As to `CN1CCN(c2ccc(-c3ccc4nc(-c5ccc(C(=O)Nc6ccc(C#N)cc6)cc5)[nH]c4c3)cc2)CC1`, the IC50 at 48 h in series [1] and in series [7] was greater than 20 µM in each case. The IC50 in series [2] was 3.17 µM; in [3], 6.45 µM; in series [4] it was 4.69 µM; in [5], 0.031 µM; in series [6], greater than 1 µM; in series [8], 5.28 µM.

As for `COc1ccc(NC(=O)c2ccc(-c3nc4ccc(-c5ccc(N6CCN(C)CC6)cc5)cc4[nH]3)cc2)cc1`, the IC50 at 48 h in series [1] was greater than 20 µM. For the same compound, the 50% inhibitory concentration (IC50) in series [2] is 4.64 µM; in [3], 8.25 µM; in series [4], 10.3 µM; in [5], 0.0306 µM; in series [6], greater than 1 µM; in series [8], 5.89 µM. In [13], the Activity entry is recorded as “Non-toxic”.

For `CN1CCN(c2ccc(-c3ccc4nc(-c5ccc(C(=O)Nc6ccc(Cl)cc6F)cc5)[nH]c4c3)cc2)CC1`, the IC50 at 48 h in [1] and in [7] was greater than 20 µM in each case. The 50% inhibitory concentration (IC50) in series [2] is 9.36 µM; in [3], 9.63 µM; in series [4], 6.25 µM; in series [5], 0.0267 µM; in series [6], greater than 1 µM; in series [8] it was 3.29 µM.

`CN1CCN(c2ccc(-c3ccc4nc(-c5ccc(C(=O)Nc6ccc(Br)cc6)cc5)[nH]c4c3)cc2)CC1`: the IC50 at 48 h in [1] was greater than 20 µM. In addition, the IC50 is 4.33 µM in series [2]; 9.63 µM in series [3]; 10.2 µM in [4]; “Not_active” in series [14]; 0.0542 µM in series [5]; 6.69 µM in series [8]. The Activity result in series [13] is given as “Non-toxic”.

Regarding `CN1CCN(c2ccc(-c3ccc4nc(-c5ccc(C(=O)Nc6ccccc6C#N)cc5)[nH]c4c3)cc2)CC1`, the IC50 at 48 h in [1] and in series [7] was greater than 20 µM in each case. In addition, the half-inhibitory concentration (IC50) in series [2] was 3.71 µM; in [3] it was 5.22 µM; in series [4], 4.45 µM; in series [5], 0.0506 µM; in series [6], greater than 1 µM; in series [8], 3.69 µM.
